pIC50: −log10 of the molar value. The source made the active and inactive calls. No cut-off for these calls is given here.
How the values were obtained:
[1] = Cytotoxicity against rat H9c2 cells assessed as cell viability in absence of H2O2; type: cell-based; parameters: concentration or dose not given beside the values; details: read-out: Activity
Butyrylcholinesterase = Butyrylcholinesterase (Equus caballus, UniProt Q9N1N9); assay: Inhibition of equine BuChE after 120 mins by Ellman's method
H9c2 [2] = assay: Prevention of apoptosis in rat H9c2 cardiomyocytes assessed as protection against oxidative stress-induced cytotoxicity at 1 pM to 1 nM after 1 hr by Alamar blue assay; type: functional
[3] = Selectivity ratio of IC50 for equine BuChE to IC50 for bovine AChE
[4] = Antioxidant activity assessed as scavenging of glucose oxidase-generated H2O2 and hydroxyl radicals by chemiluminescence assay; type: functional
Acetylcholinesterase = target: T1, Acetylcholinesterase (Bos taurus, UniProt P23795); assay: Inhibition of bovine AChE after 120 mins by Ellman's method
T1 sequence (P23795 whole entry): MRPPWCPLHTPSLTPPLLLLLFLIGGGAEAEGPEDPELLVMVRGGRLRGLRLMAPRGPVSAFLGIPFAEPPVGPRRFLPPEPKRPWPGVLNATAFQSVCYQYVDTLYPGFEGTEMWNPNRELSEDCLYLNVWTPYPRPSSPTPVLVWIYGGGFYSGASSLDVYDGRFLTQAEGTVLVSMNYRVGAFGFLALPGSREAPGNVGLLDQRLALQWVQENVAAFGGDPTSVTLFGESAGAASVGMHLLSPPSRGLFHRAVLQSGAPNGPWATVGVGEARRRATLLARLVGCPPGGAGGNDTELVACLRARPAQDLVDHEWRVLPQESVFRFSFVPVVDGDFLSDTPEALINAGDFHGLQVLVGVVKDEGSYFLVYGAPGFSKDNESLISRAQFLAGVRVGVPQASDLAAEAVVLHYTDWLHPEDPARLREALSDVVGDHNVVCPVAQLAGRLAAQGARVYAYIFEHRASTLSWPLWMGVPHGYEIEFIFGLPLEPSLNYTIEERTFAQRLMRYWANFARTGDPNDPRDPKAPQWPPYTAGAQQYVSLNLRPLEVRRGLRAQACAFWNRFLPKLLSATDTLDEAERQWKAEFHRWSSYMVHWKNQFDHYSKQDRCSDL

H9c2 [5] = assay: Prevention of apoptosis in rat H9c2 cells assessed as protection against oxidative stress-induced cytotoxicity at 100 nM […] by Alamar blue assay; type: functional
[6] = Antioxidant activity assessed as scavenging of morpholino sydononimine based nitric oxide release by chemiluminescence assay; type: functional
H9c2 [7] = assay: Prevention of apoptosis in rat H9c2 cells assessed as reduction in fall of mitochondrial membrane potential at 100 nM after 1 hr; type: functional; parameters: scale not given: the % may be the effect or the level left
[8] = Antioxidant activity of the compound assessed as DHR radical scavenging activity at 10 uM by fluorescence assay; type: functional
[9] = tested on: Radical scavenging activity; assay: Antioxidant activity of the compound assessed as DPPH radical scavenging at 10 uM after 30 secs by spectrophotometry; type: functional
Gallus gallus [10] = species on record: Gallus gallus; assay: Prevention of apoptosis in chick primary telencephalon neurons assessed as protection against serum deprivation-induced cytotoxicity at 1 to 10 uM by MTT assay; type: functional
Gallus gallus [11] = species on record: Gallus gallus; assay: Prevention of apoptosis in chick primary telencephalon neurons assessed as protection against serum deprivation-induced oxidative stress at 10 nM measured on day 8 by MTT assay; type: functional
Liver microsomes = assay: Metabolic stability in human liver microsomes; type: ADME, Microsome
[12] = Stability in human plasma assessed as compound hydrolysis at 37 degC within 90 mins; type: ADME, cell-free; details: read-out: Drug degradation
Liver = assay: Metabolic stability in mouse liver microsomes; type: ADME, Microsome
[13] = Chemical stability in MeCN/water solution at 25 degC; type: physicochemical; details: buffer

Sequence of Butyrylcholinesterase (Q9N1N9 whole entry): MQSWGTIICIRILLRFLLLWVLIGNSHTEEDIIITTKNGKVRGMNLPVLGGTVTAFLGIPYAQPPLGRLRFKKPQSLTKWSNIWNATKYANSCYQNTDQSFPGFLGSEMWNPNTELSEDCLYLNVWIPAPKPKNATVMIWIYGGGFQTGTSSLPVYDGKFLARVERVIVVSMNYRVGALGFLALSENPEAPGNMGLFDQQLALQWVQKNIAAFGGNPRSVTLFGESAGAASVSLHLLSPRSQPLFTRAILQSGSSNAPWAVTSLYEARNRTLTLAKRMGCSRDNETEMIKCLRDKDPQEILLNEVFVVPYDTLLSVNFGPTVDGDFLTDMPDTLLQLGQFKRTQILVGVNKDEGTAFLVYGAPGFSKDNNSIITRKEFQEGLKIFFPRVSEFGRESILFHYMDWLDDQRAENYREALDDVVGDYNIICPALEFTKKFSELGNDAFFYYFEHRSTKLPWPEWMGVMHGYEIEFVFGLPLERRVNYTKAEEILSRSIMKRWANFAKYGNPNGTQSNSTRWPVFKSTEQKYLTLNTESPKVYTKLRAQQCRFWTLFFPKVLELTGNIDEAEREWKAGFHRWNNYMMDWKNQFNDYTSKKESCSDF

SMILES	viability [1] [%]	pIC50 (Butyrylcholinesterase)	Ratio IC50 [3]	pIC50 [4]	pIC50 (Acetylcholinesterase)	Activity (H9c2 [5])	pIC50 [6]	other results
CCN(C)C(=O)Oc1cccc2c1C(CCC(=O)O)CN2C.Cl (stereo unspecified)	106	5.01	0.078	5.79	3.91	57.4%		Activity (H9c2 [2]): 43%
CCN(C)C(=O)Oc1ccc2c(c1)NCC2CCC(=O)OC.Cl (stereo unspecified)	100	5.41		5.84	4.26	58.5%	5.63	Activity (H9c2 [7]): 77%
O=C(O)CCC1CNc2cc(O)ccc21 (stereo unspecified)				5.63		inactive	5.87	Activity [8]: 41.9%
CCN(C)C(=O)Oc1cccc2c1c(CCC(=O)OC)cn2C					3.74			
CCN(C)C(=O)Oc1ccc2c(c1)NCC2CCC(=O)O.Cl (stereo unspecified)	102	5.00	0.06	5.94	3.76	56.1%		
C#CCN[C@@H]1CCc2ccc(OC(=O)N(C)CC)cc21 [LADOSTIGIL]		6.32	0.06		4.52	58.5%		Activity (H9c2 [7]): 32%
CC(=O)N[C@@H](CS)C(=O)O [ACETYLCYSTEINE]						25.2%		Activity (H9c2 [7]): 20%
COC(=O)CCC1CNc2cc(O)ccc21.Cl (stereo unspecified)				5.87		50%	5.86	Activity [8]: 52.1%; Activity [9]: 28.2%; Activity (H9c2 [7]): 87%
CCOC(=O)CCC1CNc2cccc(OC(=O)N(C)CC)c21 (stereo unspecified)		6.25			4.40			
CCCCN(C)C(=O)Oc1ccc2c(c1)NCC2CCC(=O)OC.Cl (stereo unspecified)	87.8	3.39	6.5	4.62	4.21	40.1%		Activity (H9c2 [7]): 54%
CCN(C)C(=O)Oc1cccc2c1C(CCN)CN2 (stereo unspecified)		6.70	0.5	7.15			5.67	Activity [9]: 36.3%
CCN(C)C(=O)Oc1cccc2c1NCC2CCC(=O)OC (stereo unspecified)		8.10	0.00012		4.21			
CCN(C)C(=O)Oc1cccc2c1C(CCC(=O)OC)CN2 (stereo unspecified)			0.04					Activity (Gallus gallus [10]): Active; Activity (Gallus gallus [11]): Active; Activity [9]: 24.8%
COC(=O)CCC1CNc2cccc(OC(=O)N(C)c3ccc(OC)cc3)c21.Cl (stereo unspecified)	84.7	5.34	3.8	4.72	5.92	43.1%	5.50	Activity [9]: 30.4%
COc1ccc(N(C)C(=O)Oc2cccc3c2C(CCC(=O)O)CN3)cc1 (stereo unspecified)	95.5	3.38	11	5.36	4.42	inactive		
CCN(C)C(=O)Oc1cccc2c1C(CCC(=O)OC)CN2C (stereo unspecified)	97.3	5.17	0.11	5.50	4.23	inactive		
O=C(O)CCC1CNc2cccc(O)c21 (stereo unspecified)				5.84				Activity [8]: 19.1%
CCN(C)C(=O)Oc1cccc2c1CCN2.Cl		6.15	0.1	5.86	5.14	35.3%	6.24	Activity (Gallus gallus [10]): Active; Activity (Gallus gallus [11]): Active; Activity [9]: 15%
CCN(C)C(=O)Oc1cccc2[nH]cc(CCC(=O)OC)c12		5.02	0.48		4.71			
COC(=O)CCC1CNc2cccc(O)c21.Cl (stereo unspecified)	121			6.17		57.3%	6.60	Activity (Gallus gallus [10]): Active; Activity (Gallus gallus [11]): Active; Activity [8]: 10.6%; Activity [9]: 32.4%
COc1ccc(N(C)C(=O)Oc2cccc3c2C(CCC(=O)O)CN3C)cc1 (stereo unspecified)	101	< 3.22	> 4.8	4.99	3.90	inactive		
CCN(C)C(=O)Oc1cccc2c1C(CCC(=O)OC)CN2.CS(=O)(=O)O (stereo unspecified)								Stability (Liver microsomes): Unstable; metabolised at […] [12]: 40%; Stability (Liver): Unstable; Stability [13]: 9 days
